Test results as given in patent US5877210A, “Phosphotyrosine phosphatase inhibitors or phosphotyrosine kinase activators for controlling cellular proliferation” (priority 1995, dated 1999).
“Also recorded” adds a separate entry of the source. Where two headings read alike, the source gives them in different places.

What was measured:
Ramos [1] = test: [3H]thymidine incorporation assay; type: cell-based, human; settings: for [3H]cpm incorporation: seven days
Procedure: (§1) For each cell type, the cells were passaged uniformly for all drug doses given during the seven-day period. The cells were then pulsed for six hours with [^3 H]thymidine. The extent of DNA synthesis was then determined by counting the radioactivity incorporated into the cells.
(§2) For assays of cellular proliferation, cells were grown five days in the presence of the indicated concentrations of BMLOV, pulsed 6 hr with [^3 H]-thymidine (New England Nuclear, Boston, Mass.), and counted in a liquid scintillation counter. Human peripheral blood lymphocytes (PBL) from normal volunteers were isolated from lymphocyte separation medium (Litton Bionetics, Kensington, Md.) by density gradient centrifugation. Monocytes were depleted from PBL by two rounds of plastic absorption for 30 minutes at 37° C. B cells were enriched for by negative selection using complement plus monoclonal antibodies to CD2, CD3, CD4, and CD8 for complement depletion. Clonogenic assays of colony formation in methylcellulose medium were performed as previously described (F. M. Uckun et al. (1992), supra).
The effect of the variation of treatment time with pV(phen) on the inhibition of proliferation in Ramos cells is shown in Table 11. These cells were grown in pV(phen) for the indicated times, washed, and then grown in fresh media for the balance of the 5-day assay. These cells were pulsed with [^3 H]-thymidine on day 5.

Ramos cells = test: Anti-phosphotyrosine western blot of cell lysates; type: cell-based, human
Jurkat = test: Anti-phosphotyrosine immunoblot; type: cell-based, human
HL-60 [2] = test: Clonogenic assay in methylcellulose; type: cell-based, human; settings: for colonies formed: seven days
Procedure: (§3) The selective cytotoxicity of BMLOV was examined in clonogenic assays. Cells were grown in methylcellulose media and the number of colonies formed after seven days of treatment with various doses of the drug were determined. The clonogenic assays were performed with six replicates for each treatment as described [F. M. Uckun et al., J. Exp. Med. 163:347-368 (1986); F. M. Uckun & J. A. Ledbetter, Proc. Natl. Acad. Sci. USA 85:8603-8607 (1988)). The data is given plus/minus the standard error of the mean.
as §2

THP-1 [3] = test: Clonogenic assay in methylcellulose; type: cell-based, human; settings: for colonies formed: seven days
Procedure: as §3, §2

Ramos [4] = test: Clonogenic assay in methylcellulose; type: cell-based, human; settings: Ramos; for colonies formed: seven days
Procedure: as §3, §2

Raji = test: Clonogenic assay in methylcellulose; type: cell-based, human; settings: for colonies formed: seven days
Procedure: as §3, §2

CEM [5] = type: cell-based, human
Description: The extent to which the T cells were being killed by BMLOV treatment relative to the Ramos B cells was therefore examined. […] The percentage of cells in each quadrant is indicated. The lower right quadrant contains the viable cells.

PP1 = test: Serine/threonine phosphatase PP1 inhibition; type: biochemical; settings: vs CD45 and PTP1B
HL-60 [6] = test: [3H]thymidine incorporation assay; type: cell-based, human; settings: for [3H]cpm incorporation: seven days
Procedure: as §1, §2

CEM [7] = test: [3H]thymidine incorporation assay; type: cell-based, human; settings: for [3H]cpm incorporation: seven days
Procedure: as §1, §2

THP-1 [8] = test: [3H]thymidine incorporation assay; type: cell-based, human; settings: for [3H]cpm incorporation: seven days
Procedure: as §1, §2

A20 = test: [3H]thymidine incorporation assay; type: cell-based, murine; settings: for [3H]cpm incorporation: seven days; for [3H]-thymidine radioactivity incorporated: 5 days
Procedure: as §1, §2
The cell lines A20, 70Z-3, L1210, and P388D were used. A20 is a B cell lymphoma cell line; 70Z/3 is a B cell leukemia cell line; L1210 is a T cell leukemia cell line; and P388D is a myeloid leukemia cell line. The cells were grown for 5 days in the presence of pV(phen) and pulsed with [^3 H]-thymidine on day 5. The extent of DNA synthesis was then determined by counting the radioactivity incorporated into the cells, as in Example 5, supra. […] The effects on L1210 cells and P388D cells are particularly noteworthy because these cell lines have been extensively used by the National Cancer Institute to identify anti-cancer drugs.

Syk tyrosine kinase = test: Syk tyrosine phosphorylation (anti-Syk immunoprecipitate, anti-phosphotyrosine blot) in Ramos B cells; type: cell-based, human; settings: 16 hours, no antigen receptor stimulation
Procedure: BMLOV is known to inhibit Src-family tyrosine kinases. […] Ramos B cells were treated with the indicated concentrations of BMLOV or pV(phen) for 16 hours. The cells were then lysed and the Syk tyrosine kinase was immunoprecipitated with anti-Syk antibodies. The tyrosine phosphorylation of Syk was examined by an anti-phosphotyrosine Western blot of the immunoprecipitated Syk protein following SDS-polyacrylamide gel electrophoresis (shown at left). The amount of Syk protein recovered was determined by anti-Syk Western blotting of identical samples (shown at right).
In the experiments shown in FIG. 23, cells were treated 16 h with BMLOV and then stimulated with α-μ for 5 min. Cells were then washed and resuspended in fresh media at equal concentrations of BMLOV at 37° C. Cells were harvested and lysted at times following the initiation of α-μ stimulation as indicated. Antibody binding in immunoblots was detected by ECL.

## Cc1occc(=O)c1[O-].Cc1occc(=O)c1[O-].[O]=[V+2] [BMLOV, Bis(maltolato)oxovanadium (IV)]
Ramos [1]; 1 μM BMLOV
  [3H]cpm incorporation: 289936 cpm
Ramos [1]; 5 μM BMLOV
  [3H]cpm incorporation: 65545 cpm
Ramos [1]; 10 μM BMLOV
  [3H]cpm incorporation: 167 cpm
Ramos [1]; 25 μM BMLOV
  [3H]cpm incorporation: 149 cpm
Ramos [1]; 10 and 25 μM, 5 or 7 days
  sensitivity of proliferation to BMLOV, in words: highly sensitive
Ramos cells; 50 μM BMLOV, 16 hours
  level of tyrosine phosphorylation: high levels of tyrosine phosphorylation
Ramos cells; 100 μM BMLOV
  time at which tyrosine phosphorylation begins: ≤ 8 min
Ramos cells; 100 μM each, 30 min
  induction of tyrosine phosphorylation compared with sodium orthovanadate: more potent than orthovanadate
Ramos cells; Ramos B cells, varying doses, 1 hour or 16 h
  induction of cellular tyrosine phosphorylation: induces tyrosine phosphorylation in a dose-dependent manner; also recorded: dose-dependent induction of tyrosine phosphorylation
Ramos cells; particularly at early time points
  tyrosine phosphorylation response to sIg crosslinking: enhanced the tyrosine phosphorylation response
Jurkat; 16 hr
  induction of tyrosine phosphorylation: only low levels of tyrosine phosphorylation
HL-60 [2]; 1 μM BMLOV
  percentage of inhibition of clonogenic growth: 99.4%
  colonies formed: 31 ± 8 colonies per 10^4 cells
HL-60 [2]; 5 μM BMLOV
  percentage of inhibition of clonogenic growth: 99.4%
  colonies formed: 31 ± 8 colonies per 10^4 cells
HL-60 [2]; 10 μM BMLOV
  percentage of inhibition of clonogenic growth: 99.7%
  colonies formed: 15 ± 4 colonies per 10^4 cells
THP-1 [3]; 1 μM BMLOV
  percentage of inhibition of clonogenic growth: 75.0%
  colonies formed: 1613 ± 235 colonies per 10^4 cells
THP-1 [3]; 5 μM BMLOV
  percentage of inhibition of clonogenic growth: 98.0%
  colonies formed: 127 ± 35 colonies per 10^4 cells
THP-1 [3]; 10 μM BMLOV
  percentage of inhibition of clonogenic growth: 98%
  colonies formed: 127 ± 35 colonies per 10^4 cells
Ramos [4]; 1 μM BMLOV
  percentage of inhibition of clonogenic growth: 95.6%
  colonies formed: 179 ± 33 colonies per 10^4 cells
Ramos [4]; 5 μM BMLOV
  percentage of inhibition of clonogenic growth: 99.8%
  colonies formed: 7 ± 2 colonies per 10^4 cells
Ramos [4]; 10 μM BMLOV
  percentage of inhibition of clonogenic growth: greater than 99.9%
  colonies formed: 0 colonies per 10^4 cells
Raji; 1 μM BMLOV
  percentage of inhibition of clonogenic growth: 60.3%
  colonies formed: 1291 ± 283 colonies per 10^4 cells
Raji; 5 μM BMLOV
  percentage of inhibition of clonogenic growth: 99.9%
  colonies formed: 4 ± 0.6 colonies per 10^4 cells
Raji; 10 μM BMLOV
  colonies formed: 3 ± 0.8 colonies per 10^4 cells
CEM [5]; CEM, 25 μM BMLOV, 4 days
  killing by BMLOV, in words: resistant to killing
PP1
  concentration for similar inhibition relative to phosphotyrosine phosphatases: over 100 fold
HL-60 [6]; 1 μM BMLOV
  [3H]cpm incorporation: 191637 cpm
HL-60 [6]; 5 μM BMLOV
  [3H]cpm incorporation: 276505 cpm
HL-60 [6]; 10 μM BMLOV
  [3H]cpm incorporation: 222178 cpm
HL-60 [6]; 25 μM BMLOV
  [3H]cpm incorporation: 11398 cpm
HL-60 [6]; 25 μM, 5 or 7 days
  sensitivity of proliferation to BMLOV, in words: moderately sensitive; also recorded: showed an inhibition of growth
CEM [7]; 1 μM BMLOV
  [3H]cpm incorporation: 368721 cpm
CEM [7]; 5 μM BMLOV
  [3H]cpm incorporation: 403576 cpm
CEM [7]; 10 μM BMLOV
  [3H]cpm incorporation: 371256 cpm
CEM [7]; 25 μM BMLOV
  [3H]cpm incorporation: 313714 cpm
CEM [7]; 25 μM, 5 or 7 days
  sensitivity of proliferation to BMLOV, in words: resistant; also recorded: only small effects
THP-1 [8]; 1 μM BMLOV
  [3H]cpm incorporation: 201670 cpm
THP-1 [8]; 5 μM BMLOV
  [3H]cpm incorporation: 178290 cpm
THP-1 [8]; 10 μM BMLOV
  [3H]cpm incorporation: 199993 cpm
THP-1 [8]; 25 μM BMLOV
  [3H]cpm incorporation: 112209 cpm
THP-1 [8]; 25 μM, 5 or 7 days
  sensitivity of proliferation to BMLOV, in words: only partial sensitivity; also recorded: showed an inhibition of growth
A20; 1 μM BMLOV
  [3H]cpm incorporation: 419947 cpm
A20; 5 μM BMLOV
  [3H]cpm incorporation: 289932 cpm
A20; 10 μM BMLOV
  [3H]cpm incorporation: 66157 cpm
A20; 25 μM BMLOV
  [3H]cpm incorporation: 281 cpm
A20; 25 μM, 5 or 7 days
  sensitivity of proliferation to BMLOV, in words: very sensitive; also recorded: highly sensitive
Syk tyrosine kinase
  tyrosine phosphorylation of Syk: only very slight tyrosine phosphorylation of Syk; also recorded: induced tyrosine phosphorylation of Syk in a dose-dependent manner

## [Na+].[O]=[V-]12([O][O]1)[O][O]2.c1cnc2c(c1)ccc1cccnc12 [pV(phen), sodium (1,10-phenanthroline) oxodiperoxovanadium (V)]
Ramos [1]; 1 μM pV(phen) for 4 hr, then fresh media to day 5
  [3H] Thymidine Incorporation: 540438 ± 86014 cpm
Ramos [1]; 1 μM pV(phen) for 8 hr, then fresh media to day 5
  [3H] Thymidine Incorporation: 444806 ± 20361 cpm
Ramos [1]; 1 μM pV(phen) for 24 hr, then fresh media to day 5
  [3H] Thymidine Incorporation: 396533 ± 16116 cpm
Ramos [1]; 1 μM pV(phen) for 5 d
  [3H] Thymidine Incorporation: 1969 ± 1295 cpm
Ramos [1]; 1 μM pV(phen), full 5-day treatment
  inhibition of proliferation: ≥ 99%
Ramos [1]; 5 μM pV(phen) for 4 hr, then fresh media to day 5
  [3H] Thymidine Incorporation: 502956 ± 20963 cpm
Ramos [1]; 5 μM pV(phen) for 8 hr, then fresh media to day 5
  [3H] Thymidine Incorporation: 351849 ± 7357 cpm
Ramos [1]; 5 μM pV(phen) for 24 hr, then fresh media to day 5
  [3H] Thymidine Incorporation: 312 ± 83 cpm
Ramos [1]; 5 μM pV(phen) for 5 d
  [3H] Thymidine Incorporation: 615 ± 268 cpm
Ramos [1]; 10 μM pV(phen) for 4 hr, then fresh media to day 5
  [3H] Thymidine Incorporation: 554511 ± 10077 cpm
Ramos [1]; 10 μM pV(phen) for 8 hr, then fresh media to day 5
  [3H] Thymidine Incorporation: 185021 ± 11112 cpm
Ramos [1]; 10 μM pV(phen) for 24 hr, then fresh media to day 5
  [3H] Thymidine Incorporation: 1862 ± 1461 cpm
Ramos [1]; 10 μM pV(phen) for 5 d
  [3H] Thymidine Incorporation: 982 ± 519 cpm
Ramos [1]; 25 μM pV(phen) for 4 hr, then fresh media to day 5
  [3H] Thymidine Incorporation: 433034 ± 74272 cpm
Ramos [1]; 25 μM pV(phen) for 8 hr, then fresh media to day 5
  [3H] Thymidine Incorporation: 877 ± 93 cpm
Ramos [1]; 25 μM pV(phen) for 24 hr, then fresh media to day 5
  [3H] Thymidine Incorporation: 399 ± 231 cpm
Ramos [1]; 25 μM pV(phen) for 5 d
  [3H] Thymidine Incorporation: 651 ± 295 cpm
Ramos cells; 16 hours, particularly at 10 μM
  proteins tyrosine phosphorylated, compared with BMLOV: causes the tyrosine phosphorylation of a significantly larger group of proteins than does BMLOV
Ramos cells; Ramos B cells, 16 hours
  induction of tyrosine phosphorylation by pV(phen): high level of tyrosine phosphorylation
Jurkat; Jurkat T cells, 16 hours
  induction of tyrosine phosphorylation by pV(phen): high level of tyrosine phosphorylation
CEM [5]; CEM, 10 μM pV(phen), three days
  cells killed: all the cells
CEM [5]; human, cem cells, 48 h, 10 µM
  cells killed: 98%
A20; 5 μM pV(phen)
  [3H]-thymidine radioactivity incorporated: 73 ± 23
A20; 10 μM pV(phen)
  [3H]-thymidine radioactivity incorporated: 76 ± 48
Syk tyrosine kinase
  tyrosine phosphorylation of Syk: strongly induces tyrosine phosphorylation of the Syk tyrosine kinase
